Measured values as given in US20210220291A1, “THERAPEUTIC COMPOSITIONS AND METHODS FOR PULMONARY FIBROSIS” (priority 2020, published 2021).

How the values were obtained:
Type in all cases: in vivo, wistar rats
[1] = tested on: TNF-α; assay: Bleomycin induced lung fibrosis in rats: TNF-α in lung tissue homogenate; details: iso-garcinol 10 mg/kg, octahydrocurcumin 150 mg/kg bodyweight, individually and in combination, vs pulmonary fibrosis control (FIG. 5)
Protocol: (§1) After overnight fasting, the wistar rats were anesthetized (60 mg/kg ketamine HCl and 5 mg/kg xylazine) and a midline incision was made in the neck and the trachea was exposed. A tracheal cannula was inserted under direct visualization into the trachea. Pulmonary fibrosis was induced by intratracheal administration of single dose 0.1 mL of bleomycin (5 mg/kg in 0.9% NaCl). Treatment with the test material was given 5 min after administration of bleomycin for 14 consecutive days. After 14 days, BALF (bronchoalveolar lavage fluid) was obtained. Lung tissue was weighed to determine the lung index. Lung homogenate was stored at −80° C. for analysis of bio-markers. […]
(§2) The lung of the animals was removed and rinsed with ice-cold isotonic saline. […] The levels of HIF-1 alpha, TGF-β, IL-13, IL-1β, TNF-α, CCL-17, osteopontin and mucin in the lung tissue homogenate was determined using methods and protocols already reported in scientific literature.

[2] = tested on: IL-13; assay: Bleomycin induced lung fibrosis in rats: IL-13 in lung tissue homogenate; details: iso-garcinol 10 mg/kg, octahydrocurcumin 150 mg/kg bodyweight, individually and in combination, vs pulmonary fibrosis control (FIG. 4)
Protocol: as §1, §2

[3] = Bleomycin induced lung fibrosis in rats: lung index; details: (weight of the lung/bodyweight)×100; iso-garcinol 10 mg/kg p.o., octahydrocurcumin 150 mg/kg, alone and combined; normal control 0.75 ± 0.053, fibrosis control 1.39 ± 0.034
Protocol: (§3) After overnight fasting, the wistar rats were anesthetized (60 mg/kg ketamine HCl and 5 mg/kg xylazine) and a midline incision was made in the neck and the trachea was exposed. A tracheal cannula was inserted under direct visualization into the trachea. Pulmonary fibrosis was induced by intratracheal administration of single dose 0.1 mL of bleomycin (5 mg/kg in 0.9% NaCl). Treatment with the test material was given 5 min after administration of bleomycin for 14 consecutive days. After 14 days, BALF (bronchoalveolar lavage fluid) was obtained. Lung tissue was weighed to determine the lung index. Lung homogenate was stored at −80° C. for analysis of bio-markers. (Yildirim A, Ersoy Y, Ercan F et al., “Phosphodiesterase-5 inhibition by sildenafil citrate in a rat model of bleomycin-induced lung fibrosis,” Pulmonary Pharmacol Therap. […]; 23(3):215-221; Chen L, Wang T, Wang X et al., “Blockade of advanced glycation end product formation attenuates bleomycin-induced pulmonary fibrosis in rats,” Respiratory Res. 2009; 10:55; Nergiz et al., The Protective Effect of Naringin against Bleomycin-Induced Pulmonary Fibrosis in Wistar Rats. Pulmonary Med. 2016, 12 p, http://dx.doi.org/10.1155/2016/7601393)
Lung index calculated using the below formula
Lung Index=(weight of the lung/bodyweight)×100

[4] = tested on: Collagen-I; assay: Bleomycin induced lung fibrosis in rats: collagen 1 levels; details: iso-garcinol 10 mg/kg p.o., octahydrocurcumin 150 mg/kg, alone and combined; normal control 64.25 ± 4.98, fibrosis control 102.43 ± 3.70
Protocol: as §1, §2

[5] = tested on: osteopontin; assay: Bleomycin induced lung fibrosis in rats: osteopontin in lung tissue homogenate; details: iso-garcinol 10 mg/kg, octahydrocurcumin 150 mg/kg bodyweight, individually and in combination, vs pulmonary fibrosis control (FIG. 7)
Protocol: as §1, §2

[6] = tested on: TGF-β; assay: Bleomycin induced lung fibrosis in rats: TGF-β in lung tissue homogenate; details: iso-garcinol 10 mg/kg, octahydrocurcumin 150 mg/kg bodyweight, individually and in combination, 14 days; for reduction in TGF-β levels: compared to pulmonary fibrosis control group (1721 pg/ml); for TGF-β levels: control group 1721 pg/ml
Protocol: as §3
(§4) The lung of the animals was removed and rinsed with ice-cold isotonic saline. To the tissues was added 4 ml/g tissue of extraction buffer containing 1 mM phenylmethylsulfonyl fluoride, 1 mg/ml aprotinin and 0.05% Tween 20 in phosphate buffered saline. Tissues were homogenized on ice with a polytron and the homogenate was centrifuged at 5000 g for 15 min. Aliquots of the supernatant were separated and used for biochemical analysis. Supernatants were stored at −80° C. until cytokine analysis (Pandey et al., Multifunctional neuroprotective effect of Withanone, a compound from Withania somnifera roots in alleviating cognitive dysfunction. Cytokine 102 (2018) 211-221). The levels of HIF-1 alpha, TGF-β, IL-13, IL-1β, TNF-α, CCL-17, osteopontin and mucin in the lung tissue homogenate was determined using methods and protocols already reported in scientific literature.

[7] = tested on: HIF-1α; assay: Bleomycin induced lung fibrosis in rats: HIF-1 alpha in lung tissue homogenate; details: 14 days; for reduction in HIF-α levels: compared to pulmonary fibrosis control group (138.6 pg/ml); for reduction in HIF-α levels / HIF-α levels: iso-garcinol 10 mg/kg, octahydrocurcumin 150 mg/kg bodyweight, individually and in combination; for HIF-α levels: control group 138.6 pg/ml
Protocol: as §3, §4
Different concentration of iso-garcinol (5, 10, 20 mg/kg bodyweight) and octahydrocurcumin were first administered to rats and the effect of the compounds in reducing hypoxia related HIF-α was evaluated. […] Thus, iso-garcinol at 10 mg/kg bodyweight and octahydrocurcumin at 150 mg/kg bodyweight was used for the further combination studies.

[8] = tested on: CCL-17; assay: Bleomycin induced lung fibrosis in rats: CCL-17 in lung tissue homogenate; details: iso-garcinol 10 mg/kg, octahydrocurcumin 150 mg/kg bodyweight, individually and in combination, vs pulmonary fibrosis control (FIG. 6)
Protocol: as §1, §2

[9] = tested on: IL-1β; assay: Bleomycin induced lung fibrosis in rats: IL-1β in lung tissue homogenate; details: iso-garcinol 10 mg/kg, octahydrocurcumin 150 mg/kg bodyweight, individually and in combination, vs pulmonary fibrosis control (FIG. 5)
Protocol: as §1, §2

[10] = tested on: MUC 5B; assay: Bleomycin induced lung fibrosis in rats: mucin 5B in lung tissue homogenate; details: iso-garcinol 10 mg/kg, octahydrocurcumin 150 mg/kg bodyweight, individually and in combination, vs pulmonary fibrosis control (FIG. 8)
Protocol: as §1, §2

| SMILES | TNF-α levels [1] | IL-13 levels [2] | Lung index [3] | Collagen-I [4] [µg/mL] | osteopontin levels [5] | reduction in TGF-β levels [6] [%] | TGF-β levels [6] [pg/mL] | reduction of hypoxia related HIF-α (determination of effective dose) ([7]; bleomycin rats, iso-garcinol 5, 10, 20 mg/kg bodyweight and different doses of octahydrocurcumin (FIG. 1)) | reduction in HIF-α levels [7] [%] | HIF-α levels [7] [pg/mL] | CCL-17 levels [8] | IL-1β levels [9] | MUC 5B levels [10] |
| --- | --- | --- | --- | --- | --- | --- | --- | --- | --- | --- | --- | --- | --- |
| CC(C)=CC[C@H]1C[C@@]23C[C@@H](CC=C(C)C)C(C)(C)[C@@](CC=C(C)C)(C(=O)C(C(=O)c4ccc(O)c(O)c4)=C2OC1(C)C)C3=O [iso-garcinol] | significantly reduced | significantly reduced | 1.19 ± 0.035 | 89.68 ± 3.23 | reduced | 42.62 | 987.5 | better reduction of HIF-α at 10 mg/kg bodyweight | 55 | 61.9 | reduced | significantly reduced | reduced |
| COc1cc(CCC(O)CC(O)CCc2ccc(O)c(OC)c2)ccc1O (stereo not shown) [octahydrocurcumin] |  |  | 1.02 ± 0.045 | 95.56 ± 4.90 |  | 28.62 | 1228.4 |  | 36.6 | 83.7 |  |  |  |
